Source: article PMC5171792 (Scientific Reports, 2016)
Like-named read-outs stand apart in the source and are kept apart here.

Assays:
H1N1 NA = H1N1 NA (Influenza A virus (H1N1), UniProt C3W5S3); test: biochemical; format: biochemical
[1] = tested on: A/Malaysia/Muar/33/2009 (H1N1); test: Antiviral (virus inhibition) assay in MDCK cells, plaque reduction; format: cell-based; settings: Influenza A virus
MDCK cells [2] = test: Cell cytotoxicity, cell proliferation assay with WST-1 reagent
in vitro = settings: dog
MDCK cells [3] = tested on: MDCK cells

Compound | ΔGbind (estimated experimental) (H1N1 NA) [kcal/mol] | EC50 [1] [µM] | CC50 (in vitro) [µM] | also measured
CC(=O)N[C@H]1[C@H]([C@H](O)[C@H](O)CO)OC(C(=O)O)=C[C@@H]1O [DANA, 2-deoxy-2,3-didehydro-N-acetylneuraminic acid, reference compound] | -6.50 | – | – | –
CCCOC(=O)/C=C/c1cc(OC)c(O)c([N+](=O)[O-])c1 [MY14] | -4.76 | – | – | –
CCOC(=O)/C=C/c1ccc(O)c(OC)c1 [MY10] | -4.42 | – | – | –
COc1cc(/C=C/C(=O)O)ccc1S(=O)(=O)c1ccc(Oc2ccccc2)cc1 [MY20] | -3.91 | – | – | –
COc1cc(/C=C/C(=O)O)ccc1O [FA, Ferulic acid, reference compound] | -5.02 | 1.32 ± 0.08 | – | toxicity on the MDCK cells (MDCK cells [2]): without showing any signs of toxicity at high concentrations; inhibition at 125 µg/mL (H1N1 NA; read-out: % inhibition of H1N1 NA): 86%; CC50 (in vitro; MDCK cells): 702 µM
CCOC(=O)/C=C/c1cc(OC)c(OC(C)C)c([N+](=O)[O-])c1 [MY3] | -5.27 | 7.5 ± 9.3 | 321 | toxicity on the MDCK cells (MDCK cells [3]): without showing any signs of toxicity at high concentrations
COc1ccc(S(=O)(=O)c2ccc(/C=C/C(=O)O)cc2OC)cc1 [MY19] | -4.38 | – | – | –
COc1c(O)ccc(/C=C/C(=O)O)c1[N+](=O)[O-] [MY24] | -4.31 | – | – | melting point: 165 to 169 °C
COc1cc(C=O)ccc1O [VN, Vanillin, reference compound] | -4.78 | 6.05 ± 4.3 | 657 | toxicity on the MDCK cells (MDCK cells [3]): without showing any signs of toxicity at high concentrations
CCC(CC)O[C@@H]1C=C(C(=O)O)C[C@H](N)[C@H]1NC(C)=O [Oseltamivir carboxylate, reference compound] | – | 35 | 351 | –
COc1cc(C=O)cc(O)c1O [MY23, 3-hydroxyvanillin] | -5.43 | 40.5 ± 3.7 | 601 | toxicity on the MDCK cells (MDCK cells [3]): significant reduction in cell viability; % inhibition of H1N1 NA (H1N1 NA): high inhibition
COC(=O)/C=C/c1ccc(O)c(OC)c1 [MY9] | -4.85 | – | – | –
CCCCOC(=O)/C=C/c1cc(OC)c(O)c([N+](=O)[O-])c1 [MY15] | -3.91 | ~0.95 | 352 | toxicity on the MDCK cells (MDCK cells [3]): without showing any signs of toxicity at high concentrations
CCCOC(=O)/C=C/c1ccc(O)c(OC)c1 [MY11] | -4.36 | – | – | –
COc1cc(C=O)cc(N=C(N)N)c1O [MY21, guanidino vanillin] | -5.60 | 1.7 ± 0.02 | 478 | toxicity on the MDCK cells (MDCK cells [3]): without showing any signs of toxicity at high concentrations
COC(=O)/C=C/c1cc(OC)c(O)c([N+](=O)[O-])c1 [MY13] | -4.19 | – | – | –
CCOC(=O)/C=C/c1cc(OC)c(O)c([N+](=O)[O-])c1 [MY2] | -4.70 | – | – | –
COc1cccc(S(=O)(=O)c2ccc(/C=C/C(=O)O)cc2OC)c1 [MY18] | -3.91 | – | – | –
CCCCOC(=O)/C=C/c1ccc(O)c(OC)c1 [MY12] | -3.91 | – | – | –
COc1cc(C=O)cc(NCCO)c1O [MY22] | -4.67 | – | – | –
